Test results taken from patent US20240299352A1, “COMBINATION THERAPIES WITH SETD2 INHIBITORS” (Epizyme, Inc., priority 2021, published 2024).

Legend:
[1] = test system: diffuse large B-cell lymphoma (DLBCL) cell lines; assay: Pre-treatment model combination study with Cpd. No. 15 (7 days pre-treatment, then combination; Table G), CellTiter-Glo viability, Loewe Volume; settings: 7 days pre-treatment with Cpd. No. 15, then combination
DOHH2 = assay: Co-treatment combination study with Cpd. No. 15, CellTiter-Glo viability, Loewe Volume; assay type: cell-based; settings: in combination with Cpd. No. 15, seven days, DLBCL cell line DOHH2
Procedure: (§1) Mantle cell lymphoma (MCL) and diffuse large B-cell lymphoma (DLBCL) cell line cultures in log-linear growth rate were treated with combinations of Cpd. No. 15 and combination partners according to a co-treatment model. […] No. 15 and the combination partner. […] Each combination was tested in quadruplicate wells. The final concentration of DMSO (vehicle) in the assay was 0.1% v/v. Fifty microliters of cell line suspension were directly dispensed to the assay-ready plates with an automated multichannel dispenser on to 384-well assay-ready plates. Assay plates were incubated for seven days unless otherwise indicated in a humidified atmosphere of 5% CO2 at 37° C. Quantification of the effect of single agents or combinations on cell viability was performed through measurement of cellular adenosine triphosphate (ATP) using a CellTiter-Glo® (Promega, Madison, WI) Luminescent Cell Viability Assay. Luminescence was detected using a SpectraMax M5 microplate reader (Molecular Devices, Sunnyvale, CA). Concentration response plots were generated in GraphPad Prism version 7.0 for Windows, GraphPad Software, (La Jolla, California) and curves fitted to a four-parameter logistic model with variable slope. Percent of inhibition was calculated at each treatment concentration.

WSUNHL = assay: as above; assay type: cell-based; settings: in combination with Cpd. No. 15, seven days, DLBCL cell line WSUNHL
Procedure: as §1

KARPAS422 = assay: as above; assay type: cell-based; settings: in combination with Cpd. No. 15, seven days, DLBCL cell line KARPAS422
Procedure: as §1

SUDHL2 = assay: as above; assay type: cell-based; settings: in combination with Cpd. No. 15, seven days, DLBCL cell line SUDHL2
Procedure: as §1

DB = assay: as above; assay type: cell-based; settings: in combination with Cpd. No. 15, seven days, DLBCL cell line DB
Procedure: as §1

TOLEDO = assay: as above; assay type: cell-based; settings: in combination with Cpd. No. 15, seven days, DLBCL cell line TOLEDO
Procedure: as §1

SUDHL10 = assay: as above; assay type: cell-based; settings: in combination with Cpd. No. 15; 5-Day Cotreatment; DLBCL cell line SUDHL10
Procedure: as §1

SUDHL5 = assay: as above; assay type: cell-based; settings: in combination with Cpd. No. 15, seven days, DLBCL cell line SUDHL5
Procedure: as §1

SUDHL8 = assay: as above; assay type: cell-based; settings: in combination with Cpd. No. 15, seven days, DLBCL cell line SUDHL8
Procedure: as §1

WILL2 = assay: as above; assay type: cell-based; settings: in combination with Cpd. No. 15, seven days, DLBCL cell line WILL2
Procedure: as §1

Pfeiffer = assay: as above; assay type: cell-based; settings: in combination with Cpd. No. 15, seven days, DLBCL cell line Pfeiffer
Procedure: as §1

HT = assay: as above; assay type: cell-based; settings: in combination with Cpd. No. 15, seven days, DLBCL cell line HT
Procedure: as §1

[2] = test system: diffuse large B-cell lymphoma (DLBCL) cell lines; assay: Co-treatment combination study with Cpd. No. 15, further cell lines (Table F), CellTiter-Glo viability, Loewe Volume; assay type: cell-based; settings: for Combination effect with Cpd. No. 15 (Loewe Volume class), Ri1: co-treatment with Cpd. No. 15, cell line Ri1 (Cat. No. 96090512-1VL); for Combination effect with Cpd. No. 15 (Loewe Volume class), TMD8: co-treatment with Cpd. No. 15, cell line TMD8 (Cat. No. M-097); for Combination effect with Cpd. No. 15 (Loewe Volume class), WILL1: co-treatment with Cpd. No. 15, cell line WILL1 (Cat. No. ACC 651)
Procedure: as §1

WSUDLCL2 = assay: Co-treatment combination study with Cpd. No. 15, CellTiter-Glo viability, Loewe Volume; assay type: cell-based; settings: in combination with Cpd. No. 15, seven days, DLBCL cell line WSUDLCL2
Procedure: as §1

SUDHL6 = assay: as above; assay type: cell-based; settings: in combination with Cpd. No. 15, seven days, DLBCL cell line SUDHL6
Procedure: as §1

RL = assay: as above; assay type: cell-based; settings: in combination with Cpd. No. 15; 6-Day Cotreatment; DLBCL cell line RL
Procedure: as §1

SUDHL4 = assay: as above; assay type: cell-based; settings: in combination with Cpd. No. 15, seven days, DLBCL cell line SUDHL4
Procedure: as §1

Z138 = assay: as above; assay type: cell-based; settings: in combination with Cpd. No. 15, seven days, mantle cell lymphoma cell line Z138 (CRL-3001)
Procedure: as §1

REC1 = assay: as above; assay type: cell-based; settings: in combination with Cpd. No. 15, seven days, mantle cell lymphoma cell line REC1 (CRL-3004)
Procedure: as §1

JVM2 = assay: as above; assay type: cell-based; settings: in combination with Cpd. No. 15, seven days, mantle cell lymphoma cell line JVM2 (CRL-3002)
Procedure: as §1

MINO = assay: as above; assay type: cell-based; settings: in combination with Cpd. No. 15, seven days, mantle cell lymphoma cell line MINO (CRL-3000)
Procedure: as §1

MAVER1 = assay: as above; assay type: cell-based; settings: in combination with Cpd. No. 15, seven days, mantle cell lymphoma cell line MAVER1 (CRL-3008)
Procedure: as §1

JEKO1 = assay: as above; assay type: cell-based; settings: in combination with Cpd. No. 15, seven days, mantle cell lymphoma cell line JEKO1 (CRL-3006)
Procedure: as §1

GRANTA519 = assay: as above; assay type: cell-based; settings: in combination with Cpd. No. 15, seven days, mantle cell lymphoma cell line GRANTA519 (ACC 342)
Procedure: as §1

Compound	Combination effect (Loewe Volume) DOHH2 (DOHH2)	Combination effect (Loewe Volume) WSUNHL (WSUNHL)	Combination effect (Loewe Volume) KARPAS422 (KARPAS422)	Combination effect (Loewe Volume) SUDHL2 (SUDHL2)	Combination effect (Loewe Volume) DB (DB)	Combination effect (Loewe Volume) TOLEDO (TOLEDO)	Combination effect (Loewe Volume) SUDHL10 (SUDHL10)	Combination effect (Loewe Volume) SUDHL5 (SUDHL5)	Combination effect (Loewe Volume) SUDHL8 (SUDHL8)	Combination effect (Loewe Volume) WILL2 (WILL2)	Combination effect (Loewe Volume) Pfeiffer (Pfeiffer)	Combination effect (Loewe Volume) HT (HT)	Combination effect with Cpd. No. 15 (Loewe Volume class), Ri1 [2]	Combination effect with Cpd. No. 15 (Loewe Volume class), TMD8 [2]	Combination effect with Cpd. No. 15 (Loewe Volume class), WILL1 [2]	Combination effect (Loewe Volume) SUDHL6 (SUDHL6)	further results
N.N.O=C([O-])C1(C(=O)[O-])CCC1.[Pt+2] [Carboplatin, carboplatin]	Additivity (between 1 and −1: additivity)	Synergy (VLoewe>1: synergy)	Additivity (between 1 and −1: additivity)	Additivity (between 1 and −1: additivity)	Additivity (between 1 and −1: additivity)	Additivity (between 1 and −1: additivity)	Additivity (between 1 and −1: additivity)	Additivity (between 1 and −1: additivity)	Synergy (VLoewe>1: synergy)	Additivity (between 1 and −1: additivity)	Additivity (between 1 and −1: additivity)	Additivity (between 1 and −1: additivity)	Additivity (between 1 and −1: additivity)	Additivity (between 1 and −1: additivity)	Additivity (between 1 and −1: additivity)		Combination effect with Cpd. No. 15 (Loewe Volume class), Farage ([1]; cell line Farage (Cat. No. CRL-2630)): Additivity (between 1 and −1: additivity); Combination effect with Cpd. No. 15 (Loewe Volume class), HT ([1]; cell line HT (Cat. No. CRL-2631)): Synergy (VLoewe>1: synergy); Combination effect with Cpd. No. 15 (Loewe Volume class), OCILY7 ([1]; cell line OCILY7 (Cat. No. ACC 688)): Additivity (between 1 and −1: additivity); Combination effect with Cpd. No. 15 (Loewe Volume class), WILL2 ([1]; cell line WILL2 (Cat. No. ACC 652)): Synergy (VLoewe>1: synergy)
CNC[C@@H](O)COc1ccc(Cl)c(-c2nc(-c3c(C)noc3C)c(C)c(N3CC4(CCN(C(=O)OC)CC4)C3)n2)c1 [EPZ-2302]	Synergy (VLoewe>1: synergy)	Synergy (VLoewe>1: synergy)	Synergy (VLoewe>1: synergy)	Synergy (VLoewe>1: synergy)	No Effect	Synergy (VLoewe>1: synergy)	No Effect	Additivity (between 1 and −1: additivity)	No Effect	Synergy (VLoewe>1: synergy)	No Effect	Synergy (VLoewe>1: synergy)	Synergy (VLoewe>1: synergy)	Synergy (VLoewe>1: synergy)	Synergy (VLoewe>1: synergy)	Synergy (VLoewe>1: synergy)	Combination effect (Loewe Volume) WSUDLCL2 (WSUDLCL2): Synergy (VLoewe>1: synergy); Combination effect (Loewe Volume) RL (RL): Synergy (VLoewe>1: synergy); Combination effect (Loewe Volume) SUDHL4 (SUDHL4): Synergy (VLoewe>1: synergy)
rituximab	Synergy (VLoewe>1: synergy)	Additivity (between 1 and −1: additivity)	No Effect	No Effect	No Effect	Additivity (between 1 and −1: additivity)	Additivity (between 1 and −1: additivity)		Additivity (between 1 and −1: additivity)	Additivity (between 1 and −1: additivity)	No Effect	Additivity (between 1 and −1: additivity)	Additivity (between 1 and −1: additivity)	No Effect	No Effect	Synergy (VLoewe>1: synergy)	Combination effect (Loewe Volume) Z138 (Z138): No Effect; Combination effect (Loewe Volume) REC1 (REC1): Additivity (between 1 and −1: additivity); Combination effect (Loewe Volume) JVM2 (JVM2): Additivity (between 1 and −1: additivity); Combination effect (Loewe Volume) MINO (MINO): No Effect; Combination effect (Loewe Volume) MAVER1 (MAVER1): Synergy (VLoewe>1: synergy); Combination effect (Loewe Volume) JEKO1 (JEKO1): Synergy (VLoewe>1: synergy); Combination effect (Loewe Volume) GRANTA519 (GRANTA519): Additivity (between 1 and −1: additivity)
